Test results reported in ChEMBL document CHEMBL3774329, “Synthesis and Evaluation of Oxyguanidine Analogues of the Cysteine Protease Inhibitor WRR-483 against Cruzain” (ACS Med Chem Lett, 2016).
Activity calls are given as the source filed them. The calls are words filed in the database; no cut-off is given here.

Key:
[1] = biological target: Cruzipain (Trypanosoma cruzi) (UniProt P25779); assay: Inhibition of His-tagged recombinant Trypanosoma cruzi cruzain using Z-Phe-Arg-AMC as substrate assessed as ratio of Kinact to Ki preincubated for 5 mins at pH 8 by spectrofluorometric analysis
Sequence of Cruzipain (Trypanosoma cruzi) (P25779 123-467 limits assumed): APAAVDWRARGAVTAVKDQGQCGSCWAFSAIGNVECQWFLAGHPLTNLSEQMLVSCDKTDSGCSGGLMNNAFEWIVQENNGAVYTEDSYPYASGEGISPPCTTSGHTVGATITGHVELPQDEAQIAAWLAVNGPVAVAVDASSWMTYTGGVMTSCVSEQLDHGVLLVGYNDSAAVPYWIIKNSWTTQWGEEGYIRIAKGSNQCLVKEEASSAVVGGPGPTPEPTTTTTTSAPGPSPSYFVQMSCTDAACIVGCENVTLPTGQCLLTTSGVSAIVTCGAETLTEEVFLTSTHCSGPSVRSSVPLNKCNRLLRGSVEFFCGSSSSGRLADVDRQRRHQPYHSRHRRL

[2] = biological target: Cruzipain (Trypanosoma cruzi) (UniProt P25779); assay: Inhibition of His-tagged recombinant Trypanosoma cruzi cruzain using Z-Phe-Arg-AMC as substrate assessed as ratio of Kinact to Ki preincubated for 5 mins at pH 5.5 by spectrofluorometric analysis
[3] = biological target: T1, Cysteine proteinase 1 (Entamoeba histolytica) (UniProt Q01957); assay: Inhibition of Entamoeba histolytica cysteine protease1 using ZRR-AMC peptide as substrate assessed as release of AMC at 250 pM to 1 uM incubated for 15 mins by fluorometric analysis
T1 sequence (whole entry): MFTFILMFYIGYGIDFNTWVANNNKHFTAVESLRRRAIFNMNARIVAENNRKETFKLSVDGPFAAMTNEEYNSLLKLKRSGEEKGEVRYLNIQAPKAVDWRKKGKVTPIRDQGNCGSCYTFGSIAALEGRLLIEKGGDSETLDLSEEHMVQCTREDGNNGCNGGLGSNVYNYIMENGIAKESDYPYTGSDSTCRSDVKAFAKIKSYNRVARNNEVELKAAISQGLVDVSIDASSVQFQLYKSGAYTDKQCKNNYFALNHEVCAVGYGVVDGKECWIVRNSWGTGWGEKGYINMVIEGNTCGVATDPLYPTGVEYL

[4] = biological target: Cruzipain (Trypanosoma cruzi) (UniProt P25779); assay: Ratio of Kinact/Ki at pH 8 to Kinact/Ki at pH 5.5 for inhibition of His-tagged recombinant Trypanosoma cruzi cruzain
[5] = biological target: Cytochrome P450 2C9 (Homo sapiens, UniProt P11712); assay: Inhibition of CYP2C9 in human liver microsomes at 1 to 10 uM after 10 mins in presence of NADPH; format: ADME
Sequence of Cytochrome P450 2C9 (P11712 whole entry): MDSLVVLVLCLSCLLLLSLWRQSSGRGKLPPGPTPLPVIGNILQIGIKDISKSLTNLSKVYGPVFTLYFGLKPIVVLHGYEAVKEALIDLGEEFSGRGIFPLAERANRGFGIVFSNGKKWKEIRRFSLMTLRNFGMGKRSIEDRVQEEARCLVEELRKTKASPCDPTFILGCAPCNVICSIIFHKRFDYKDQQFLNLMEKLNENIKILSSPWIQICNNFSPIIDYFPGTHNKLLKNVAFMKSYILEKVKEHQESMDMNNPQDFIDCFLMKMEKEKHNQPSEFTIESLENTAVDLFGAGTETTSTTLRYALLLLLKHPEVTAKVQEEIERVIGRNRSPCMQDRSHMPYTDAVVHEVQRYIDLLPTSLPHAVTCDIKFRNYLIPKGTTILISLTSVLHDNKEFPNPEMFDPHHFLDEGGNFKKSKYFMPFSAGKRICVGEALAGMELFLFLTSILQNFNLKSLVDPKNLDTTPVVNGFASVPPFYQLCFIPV

[6] = system: Liver microsome; assay: Stability of compound in rat liver microsomes at 1 uM measured at 5 to 60 mins in presence of NADPH by LC-MS/MS analysis; format: ADME
[7] = Stability of compound in mouse liver microsomes at 1 uM measured at 5 to 60 mins in presence of NADPH by LC-MS/MS analysis; format: ADME
[8] = system: Liver microsome; assay: Stability of compound in human liver microsomes at 1 uM measured at 5 to 60 mins in presence of NADPH by LC-MS/MS analysis; format: ADME
[9] = biological target: Cytochrome P450 2D6 (Homo sapiens, UniProt P10635); assay: Inhibition of CYP2D6 in human liver microsomes at 1 to 10 uM after 10 mins in presence of NADPH; format: ADME
Sequence of Cytochrome P450 2D6 (P10635 whole entry): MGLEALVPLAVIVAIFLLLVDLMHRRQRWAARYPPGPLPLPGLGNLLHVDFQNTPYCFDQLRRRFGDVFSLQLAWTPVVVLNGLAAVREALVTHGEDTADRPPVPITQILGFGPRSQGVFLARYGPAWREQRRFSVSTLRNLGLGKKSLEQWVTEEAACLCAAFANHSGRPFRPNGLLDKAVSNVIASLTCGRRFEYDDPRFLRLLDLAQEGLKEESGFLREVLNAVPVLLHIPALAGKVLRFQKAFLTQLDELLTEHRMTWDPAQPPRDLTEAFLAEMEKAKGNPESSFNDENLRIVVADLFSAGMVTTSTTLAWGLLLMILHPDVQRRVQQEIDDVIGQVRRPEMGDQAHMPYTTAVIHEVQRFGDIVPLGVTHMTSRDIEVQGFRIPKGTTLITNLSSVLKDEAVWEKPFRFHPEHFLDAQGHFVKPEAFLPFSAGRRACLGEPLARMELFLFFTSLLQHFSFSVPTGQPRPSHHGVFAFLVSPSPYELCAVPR

[10] = system: Plasma; assay: Drug degradation in C57BL/6 mouse plasma assessed as proteolytic cleavage in presence of EDTA by LC-MS/MS analysis; format: ADME, cell-free
[11] = system: Rattus norvegicus; assay: Drug metabolism in Sprague-Dawley rat assessed as WRR-671 formation at 3 mg/kg, iv over 8 hrs by LC-MS/MS analysis; format: ADME, organism-based; conditions: in vivo
[12] = biological target: Cruzipain (Trypanosoma cruzi) (UniProt P25779); assay: Ratio of Kinact/Ki at pH 5.5 to Kinact/Ki at pH 8 for inhibition of His-tagged recombinant Trypanosoma cruzi cruzain
[13] = system: Rattus norvegicus; assay: Drug level in Sprague-Dawley rat treated with WRR-668 at 3 mg/kg, iv over 8 hrs by LC-MS/MS analysis; format: ADME, organism-based; conditions: in vivo
[14] = system: Trypanosoma cruzi; assay: Antiparasitic activity against Trypanosoma cruzi CA-I/72 trypomastigote infected in mouse C2C12 cells after 72 hrs by DAPI-staining based microscopic analysis; format: functional, organism-based; conditions: CA-I/72, C2C12, 72 h

Row | Compound | Ratio [1] | Ratio [2] | Ratio [4] | inhibition (INH) [9] | also measured
1 | CN1CCN(C(=O)N[C@@H](CCCNC(=N)N)C(=O)N[C@H](/C=C/S(=O)(=O)c2ccccn2)CCc2ccccc2)CC1 | 3100 M⁻¹ s⁻¹ | 8100 M⁻¹ s⁻¹ | – | – | inhibition [3]: Active
2 | CN1CCN(C(=O)N[C@@H](CCCNC(=N)N)C(=O)N[C@H](/C=C/S(=O)(=O)c2ccccc2)CCc2ccccc2)CC1 | 113000 M⁻¹ s⁻¹ | 36600 M⁻¹ s⁻¹ | > 3 | – | –
3 | CONC(=N)NCCC[C@H](NC(=O)N1CCN(C)CC1)C(=O)N[C@H](/C=C/S(=O)(=O)c1ccccn1)CCc1ccccc1 | 1.17e+06 M⁻¹ s⁻¹ | 25000 M⁻¹ s⁻¹ | > 3 | Active | inhibition (INH) [5]: Active; Stability [6]: Stable; Stability [7]: Stable; Stability [8]: Stable; Stability [10]: Unstable; inhibition [3]: Active
4 | CN1CCN(C(=O)N[C@@H](CCCCNC(=N)N)C(=O)N[C@H](/C=C/S(=O)(=O)c2ccccc2)CCc2ccccc2)CC1 | 59700 M⁻¹ s⁻¹ | 11000 M⁻¹ s⁻¹ | > 3 | – | –
5 | CN1CCN(C(=O)N[C@@H](CCCONC(=N)N)C(=O)N[C@H](/C=C/S(=O)(=O)c2ccccn2)CCc2ccccc2)CC1 | 308000 M⁻¹ s⁻¹ | 214000 M⁻¹ s⁻¹ | – | Active | Stability [6]: Stable; Drug metabolism [11]: metabolite_detected; Stability [7]: Stable; Stability [8]: Stable; inhibition [3]: Active
6 | CN1CCN(C(=O)N[C@@H](CCCONC(=N)N)C(=O)N[C@H](/C=C/S(=O)(=O)c2ccccc2)CCc2ccccc2)CC1.Cl.Cl | 53400 M⁻¹ s⁻¹ | 43300 M⁻¹ s⁻¹ | – | Active | –
7 | CN1CCN(C(=O)N[C@@H](CCCO)C(=O)N[C@H](/C=C/S(=O)(=O)c2ccccc2)CCc2ccccc2)CC1 | – | – | – | – | Drug metabolism [13]: metabolite_detected

Continued, in another order:

Row | Ratio [1] | Ratio [2] | Ratio [4] | inhibition (INH) [9] | Compound | also measured
8 | 138000 M⁻¹ s⁻¹ | 93100 M⁻¹ s⁻¹ | – | – | CN1CCN(C(=O)N[C@@H](CCONC(=N)N)C(=O)N[C@H](/C=C/S(=O)(=O)c2ccccc2)CCc2ccccc2)CC1 | –
9 | 32500 M⁻¹ s⁻¹ | 158000 M⁻¹ s⁻¹ | – | – | CN1CCN(C(=O)N[C@@H](Cc2ccccc2)C(=O)N[C@H](/C=C/S(=O)(=O)c2ccccc2)CCc2ccccc2)CC1 | Ratio [12]: > 5
10 | 1500 M⁻¹ s⁻¹ | 320000 M⁻¹ s⁻¹ | – | – | CN1CCN(C(=O)N[C@@H](CCCONC(=N)N)C(=O)N[C@H](/C=C/S(=O)(=O)c2ncccn2)CCc2ccccc2)CC1 | Ratio [12]: > 5
11 | 65700 M⁻¹ s⁻¹ | 9100 M⁻¹ s⁻¹ | > 3 | Active | CONC(=N)NCCC[C@H](NC(=O)N1CCN(C)CC1)C(=O)N[C@H](/C=C/S(=O)(=O)c1ccccc1)CCc1ccccc1 | EC50 [14]: 269 nM
